Measurements as given in ChEMBL document CHEMBL6177986, “A Perspective on the Strategic Application of Deconstruction-Reconstruction in Drug Discovery” (J Med Chem, 2025).

Experiments:
[1] = molecular target: T1, Phosphatidylinositol 4,5-bisphosphate 3-kinase catalytic subunit delta isoform (Homo sapiens, UniProt O00329); test: Inhibition of PI3Kdelta (unknown origin)
T1 sequence (O00329 whole entry): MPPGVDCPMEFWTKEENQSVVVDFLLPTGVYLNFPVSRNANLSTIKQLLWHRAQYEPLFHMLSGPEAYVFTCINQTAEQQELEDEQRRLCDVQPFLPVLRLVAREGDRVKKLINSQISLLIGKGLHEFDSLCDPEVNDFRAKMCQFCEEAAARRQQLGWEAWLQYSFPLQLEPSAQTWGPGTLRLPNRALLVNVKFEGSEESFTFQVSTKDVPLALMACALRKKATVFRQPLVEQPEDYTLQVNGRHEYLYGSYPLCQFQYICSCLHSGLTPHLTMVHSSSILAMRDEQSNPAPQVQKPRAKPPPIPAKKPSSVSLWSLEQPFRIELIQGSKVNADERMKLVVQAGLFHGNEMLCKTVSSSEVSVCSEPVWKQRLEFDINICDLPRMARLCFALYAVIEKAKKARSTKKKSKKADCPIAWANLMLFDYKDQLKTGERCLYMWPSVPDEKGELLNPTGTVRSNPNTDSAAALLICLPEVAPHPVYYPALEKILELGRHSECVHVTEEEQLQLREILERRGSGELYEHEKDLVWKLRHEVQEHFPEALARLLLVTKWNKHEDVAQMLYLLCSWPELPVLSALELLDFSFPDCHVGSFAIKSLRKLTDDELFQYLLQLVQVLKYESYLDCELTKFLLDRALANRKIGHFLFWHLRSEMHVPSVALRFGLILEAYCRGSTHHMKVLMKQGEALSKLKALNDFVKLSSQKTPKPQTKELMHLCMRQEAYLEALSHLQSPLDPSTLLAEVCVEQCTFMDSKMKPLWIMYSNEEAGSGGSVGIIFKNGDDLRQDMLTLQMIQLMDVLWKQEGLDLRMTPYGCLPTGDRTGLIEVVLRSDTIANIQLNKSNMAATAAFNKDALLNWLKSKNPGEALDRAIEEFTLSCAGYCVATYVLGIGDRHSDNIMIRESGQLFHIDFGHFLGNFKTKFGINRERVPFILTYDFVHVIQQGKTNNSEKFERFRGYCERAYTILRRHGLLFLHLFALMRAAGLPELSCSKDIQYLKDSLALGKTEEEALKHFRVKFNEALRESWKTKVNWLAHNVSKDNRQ

[2] = molecular target: Phosphatidylinositol 4,5-bisphosphate 3-kinase catalytic subunit beta isoform (Homo sapiens, UniProt P42338); test: Inhibition of PI3Kbeta (unknown origin)
Sequence of Phosphatidylinositol 4,5-bisphosphate 3-kinase catalytic subunit beta isoform (P42338 whole entry, canonical isoform): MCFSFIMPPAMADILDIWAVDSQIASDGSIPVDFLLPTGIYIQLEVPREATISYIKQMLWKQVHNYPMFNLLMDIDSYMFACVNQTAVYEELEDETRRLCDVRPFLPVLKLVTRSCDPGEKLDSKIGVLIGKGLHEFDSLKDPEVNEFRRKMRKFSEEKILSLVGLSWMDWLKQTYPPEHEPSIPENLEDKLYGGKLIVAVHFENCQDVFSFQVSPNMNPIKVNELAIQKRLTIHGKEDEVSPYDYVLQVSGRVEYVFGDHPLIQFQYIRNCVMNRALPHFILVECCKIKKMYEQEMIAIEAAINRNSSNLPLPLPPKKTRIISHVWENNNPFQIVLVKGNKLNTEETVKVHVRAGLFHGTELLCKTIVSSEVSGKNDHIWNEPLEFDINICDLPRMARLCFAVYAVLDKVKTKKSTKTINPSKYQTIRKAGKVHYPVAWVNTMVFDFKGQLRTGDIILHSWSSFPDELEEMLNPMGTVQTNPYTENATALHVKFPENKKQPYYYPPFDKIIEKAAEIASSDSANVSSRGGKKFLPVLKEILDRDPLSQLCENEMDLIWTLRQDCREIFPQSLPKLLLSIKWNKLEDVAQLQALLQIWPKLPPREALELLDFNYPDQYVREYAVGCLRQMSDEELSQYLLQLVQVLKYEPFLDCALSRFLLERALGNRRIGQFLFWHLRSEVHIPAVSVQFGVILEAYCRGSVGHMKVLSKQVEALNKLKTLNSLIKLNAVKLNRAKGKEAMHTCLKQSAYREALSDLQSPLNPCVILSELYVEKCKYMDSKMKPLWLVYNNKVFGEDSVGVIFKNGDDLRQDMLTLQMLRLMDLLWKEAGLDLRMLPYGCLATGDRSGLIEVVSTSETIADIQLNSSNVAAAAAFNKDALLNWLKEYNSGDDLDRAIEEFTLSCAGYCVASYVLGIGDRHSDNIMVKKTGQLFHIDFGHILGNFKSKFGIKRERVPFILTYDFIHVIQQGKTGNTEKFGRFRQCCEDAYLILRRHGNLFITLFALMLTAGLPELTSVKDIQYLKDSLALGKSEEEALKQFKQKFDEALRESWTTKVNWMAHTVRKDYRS

[3] = molecular target: Phosphatidylinositol 4,5-bisphosphate 3-kinase catalytic subunit gamma isoform (Homo sapiens, UniProt P48736); test: Inhibition of PI3Kgamma (unknown origin)
Sequence of Phosphatidylinositol 4,5-bisphosphate 3-kinase catalytic subunit gamma isoform (P48736 whole entry, canonical isoform): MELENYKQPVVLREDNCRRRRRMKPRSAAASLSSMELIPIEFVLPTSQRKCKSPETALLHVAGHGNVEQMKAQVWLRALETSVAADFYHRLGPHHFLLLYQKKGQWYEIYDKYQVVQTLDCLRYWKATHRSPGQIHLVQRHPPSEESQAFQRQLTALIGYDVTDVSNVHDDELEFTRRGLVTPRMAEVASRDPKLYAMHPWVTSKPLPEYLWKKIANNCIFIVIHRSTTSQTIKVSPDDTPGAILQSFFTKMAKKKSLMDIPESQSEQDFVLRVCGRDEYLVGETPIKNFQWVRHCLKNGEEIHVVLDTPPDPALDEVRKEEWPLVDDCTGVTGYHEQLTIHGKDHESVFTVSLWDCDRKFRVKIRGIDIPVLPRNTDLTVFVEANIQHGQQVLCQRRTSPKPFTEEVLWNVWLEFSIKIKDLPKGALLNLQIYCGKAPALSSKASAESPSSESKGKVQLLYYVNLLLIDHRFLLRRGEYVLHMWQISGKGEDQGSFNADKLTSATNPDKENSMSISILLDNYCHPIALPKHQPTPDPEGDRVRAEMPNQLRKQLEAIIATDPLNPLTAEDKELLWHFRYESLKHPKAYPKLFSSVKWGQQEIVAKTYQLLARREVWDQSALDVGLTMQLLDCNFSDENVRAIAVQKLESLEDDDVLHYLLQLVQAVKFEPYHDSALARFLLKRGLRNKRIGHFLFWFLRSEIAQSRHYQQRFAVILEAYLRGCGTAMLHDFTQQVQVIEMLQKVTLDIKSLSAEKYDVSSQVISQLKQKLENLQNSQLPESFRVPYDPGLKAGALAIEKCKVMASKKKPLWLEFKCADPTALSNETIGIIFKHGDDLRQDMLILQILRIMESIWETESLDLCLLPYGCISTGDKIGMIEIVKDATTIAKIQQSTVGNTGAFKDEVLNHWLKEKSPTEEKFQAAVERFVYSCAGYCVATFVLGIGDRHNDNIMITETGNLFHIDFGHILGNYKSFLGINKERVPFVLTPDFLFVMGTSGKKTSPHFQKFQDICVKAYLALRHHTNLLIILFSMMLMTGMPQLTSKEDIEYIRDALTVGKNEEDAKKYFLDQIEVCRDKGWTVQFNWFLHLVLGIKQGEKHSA

[4] = molecular target: Phosphatidylinositol 4,5-bisphosphate 3-kinase catalytic subunit alpha isoform (Homo sapiens, UniProt P42336); test: Inhibition of PI3Kalpha (unknown origin)
Sequence of Phosphatidylinositol 4,5-bisphosphate 3-kinase catalytic subunit alpha isoform (P42336 whole entry, canonical isoform): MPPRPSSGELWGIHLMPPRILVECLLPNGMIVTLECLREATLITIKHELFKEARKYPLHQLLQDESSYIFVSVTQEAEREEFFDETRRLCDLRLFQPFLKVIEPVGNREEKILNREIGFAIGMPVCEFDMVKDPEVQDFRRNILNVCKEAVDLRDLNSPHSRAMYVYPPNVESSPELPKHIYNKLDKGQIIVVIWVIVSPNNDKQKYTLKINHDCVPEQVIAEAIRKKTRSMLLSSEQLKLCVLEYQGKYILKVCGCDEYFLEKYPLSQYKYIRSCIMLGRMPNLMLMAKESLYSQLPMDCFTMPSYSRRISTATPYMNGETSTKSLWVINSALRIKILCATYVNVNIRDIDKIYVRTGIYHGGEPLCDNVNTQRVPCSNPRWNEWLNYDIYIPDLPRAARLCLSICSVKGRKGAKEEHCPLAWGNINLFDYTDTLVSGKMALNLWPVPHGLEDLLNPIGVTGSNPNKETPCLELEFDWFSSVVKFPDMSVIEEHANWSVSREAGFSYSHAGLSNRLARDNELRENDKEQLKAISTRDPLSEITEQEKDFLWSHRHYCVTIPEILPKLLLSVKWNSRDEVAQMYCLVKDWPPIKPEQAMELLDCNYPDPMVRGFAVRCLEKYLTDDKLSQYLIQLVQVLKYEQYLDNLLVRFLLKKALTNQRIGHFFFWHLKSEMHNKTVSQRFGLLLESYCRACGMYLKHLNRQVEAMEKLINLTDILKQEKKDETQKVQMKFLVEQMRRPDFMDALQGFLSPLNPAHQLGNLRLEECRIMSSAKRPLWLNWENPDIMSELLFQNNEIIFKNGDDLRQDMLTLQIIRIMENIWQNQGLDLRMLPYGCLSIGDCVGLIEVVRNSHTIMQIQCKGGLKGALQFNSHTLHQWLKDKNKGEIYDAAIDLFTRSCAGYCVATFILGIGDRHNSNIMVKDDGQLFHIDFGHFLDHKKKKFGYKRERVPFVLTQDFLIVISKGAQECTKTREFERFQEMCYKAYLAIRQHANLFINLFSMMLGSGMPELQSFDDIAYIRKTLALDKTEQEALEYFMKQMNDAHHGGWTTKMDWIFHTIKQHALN

Structure (SMILES)	IC50 [1]	IC50 [2]	IC50 [3]	IC50 [4]
COc1ncc(C2=CCOCC2)cc1NS(=O)(=O)c1cn(Cc2ccccc2)c(C)n1	6 nM	–	–	–
COc1ncc(-c2ccc3ccncc3c2)cc1NS(C)(=O)=O	160 nM	2500 nM	790 nM	2500 nM
c1cc(-c2ccncc2)c2cc[nH]c2c1	–	> 50000 nM	> 50000 nM	> 50000 nM

The next lines start with the values.

IC50 [1]	IC50 [2]	IC50 [3]	IC50 [4]	Structure (SMILES)
–	–	–	> 32000 nM	c1cc(-c2ccc3ccncc3c2)c2cc[nH]c2c1
250 nM	790 nM	2500 nM	6300 nM	COc1ncc(-c2ccncc2)cc1NS(C)(=O)=O
